Results on ten compounds are retold here after US6710048B2, “Pyrazine derivatives as modulators of tyrosine kinases” (Ortho-McNeil Pharmaceutical, Inc., priority 2000, dated 2004).

The term IC50 denotes the midpoint of a concentration-inhibition curve.

T1 sequence (P63086 whole entry): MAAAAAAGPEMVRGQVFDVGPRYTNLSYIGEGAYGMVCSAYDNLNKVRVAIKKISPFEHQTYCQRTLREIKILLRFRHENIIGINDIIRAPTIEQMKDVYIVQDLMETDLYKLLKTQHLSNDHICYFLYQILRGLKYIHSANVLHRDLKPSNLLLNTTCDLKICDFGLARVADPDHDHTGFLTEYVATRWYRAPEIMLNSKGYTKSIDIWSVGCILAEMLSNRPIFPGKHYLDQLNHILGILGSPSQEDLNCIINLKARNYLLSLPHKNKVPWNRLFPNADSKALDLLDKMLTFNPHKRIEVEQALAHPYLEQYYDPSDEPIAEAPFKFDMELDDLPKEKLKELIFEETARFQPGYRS

The first experiment addresses T1, MAP Kinase ERK-2 (Rattus norvegicus, UniProt P63086).
T1 construct: polyhistidine (N); purchased BIOMOL SE-137; host or cells: E. coli
As to the kind of experiment: MAP Kinase ERK-2 selectivity assay. As to conditions: Table 4 kinase selectivity; read-out: IC50, Assay 12 MAP Kinase ERK-2. In kind it is biochemical. As for the experimental part: (§1) Assays to test compound inhibition of other kinases were preformed using methods that measure the amount of phosphorylation of a biotinylated peptide substrate. Biotinylated peptide substrates were selected from the literature as appropriate for the enzyme being evaluated. […] Assay conditions vary slightly for each protein kinase, for example, insulin receptor kinase requires 10 mM MnCl2 for activity and Calmodulin-dependent protein kinase requires calmodulin and 2 mM CaCl2. The reaction mixture was dispensed into the wells of a streptavidin coated Flashplate and 1 μl drug stock in 100% DMSO was added to a 100 μl reaction volume resulting in a final concentration of 1% DMSO in the reaction. Enzyme was diluted in 50 mM Tris-HCl pH=8.0, 0.1% BSA and added to each well. The reaction was incubated for one hour at 30° C. in the presence of compound. After one hour the reaction mix was aspirated from the plate and the plate was washed with PBS containing 100 mM EDTA. The plate was read on a scintillation counter to determine ^33P-γ-ATP incorporated into the immobilized peptide. Test compounds were assayed in duplicate at 8 concentrations [100 tM, 10 μM, 1 μM, 100 nM, 10 nM, 1 nM, 100 μM, 10 μM]. A maximum and minimum signal for the assay was determined on each plate. The IC50 was calculated from the dose response curve of the percent inhibition of the maximum signal in the assay according to the formula [max signal−background/test compound signal−background (100)=% inhibition] by graphing the percent inhibition against the log concentration of test compound. Known inhibitor compounds appropriate for the kinase being assayed were also included on each plate.
(§2) VEGF-R (vascular endothelial growth factor receptor-2) is a fusion protein containing a polyhistidine tag at the N-terminus followed by amino acids 786-1343 of the rat VEGF-R2 kinase domain (GenBank Accession #U93306). CDK1 (cyclin dependent kinase 1) is isolated from insect cells expressing both the human CDK1 catalytic subunit and its positive regulatory subunit cyclin B (New England Biolabs, Beverly, Mass., Cat. #6020). CDK4 (cyclin dependent kinase 4) contains amino acids 769 to 921 of the mouse […] protein found in the GST-retinoblastoma protein construct (Santa Cruz Biotechnology, Santa Cruz, Calif.; Cat. #SC-4112). Insulin Receptor Kinase consists of residues 941-1313 of the cytoplasmic domain of the beta-subunit of the human insulin receptor (BIOMOL, Plymouth Meeting, Pa., Cat. #SE-195). Protein Kinase A is the catalytic subunit of cAMP dependent protein kinase-A purified from bovine heart (Upstate Biotech, Lake Placid, N.Y., Cat#14-114). PKC (protein kinase-C) is the gamma or beta isoform of the human protein produced in insect cells (BIOMOL, Plymouth Meeting, Pa., Cat. #SE-143). Casein Kinase 1 is a truncation at amino acid 318 of the C-terminal portion of the rat CK1 delta isoform produced in E.coli (New England Biolabs, Beverly, Mass., Cat. #6030). Casein Kinase 2 includes the alpha and beta subunits of the human CK2 protein produced in E.coli (New England Biolabs, Beverly, Mass., Cat. #6010). Calmodulin Kinase (calmodulin-dependent protein kinase 2) is a truncated version of the alpha subunit of the rat protein produced in insect cells (New England Biolabs, Beverly, Mass., Cat. #6060). Glycogen Synthase Kinase-3 is the beta isoform of the rabbit enzyme produced in E. coli (New England Biolabs, Beverly, Mass., Cat. #6040). MAP Kinase is the rat ERK-2 isoform containing a polyhistidine tag at the N-terminus produced in E. coli. and activated by phosphorylation with MEK1 prior to purification (BIOMOL, Plymouth Meeting, Pa., Cat. #SE-137). EGFR (epidermal growth factor receptor) is purified from human A431 cell membranes (Sigma, St. Louis, Mo., Cat.# E3641). PDGF-R (platelet derived growth factor receptor) is a fusion protein containing a polyhistidine tag at the N-terminus followed by nucleotides 1874-3507 of the human PDGF-R beta subunit kinase domain (Accession #M21616). […]
`O=C(NCCCO)c1cncc(-c2cncc(Nc3cccc(Cl)c3)n2)c1` [Cmd 39]: the IC50 was over 100 µM.
As for `Clc1cccc(Nc2cncc(-c3cncc(NCCCc4cccnc4)c3)n2)c1` [Cmd 72], the IC50 was over 100 µM.
On the same count and under the same terms, in the case of `Clc1cccc(Nc2cncc(-c3cncc(NCCCn4cncn4)c3)n2)c1` [Cmd 76] it was over 100 µM; in that of `OCCCCNc1cncc(-c2cncc(Nc3cccc(Cl)c3)n2)c1` [Cmd 32], over 100 µM.
The same measure, in the same setting: next, `OCCCNc1cncc(-c2cncc(Nc3cccc(Cl)c3)n2)c1` [Cmd 4]: over 100 µM.
Still for that read-out and setting: in the case of `Clc1cccc(Nc2cncc(-c3cncc(NCCCc4ccncc4)c3)n2)c1` [Cmd 71] it was over 100 µM; in that of `Clc1cccc(Nc2cncc(-c3cncc(NCCCn4cccn4)c3)n2)c1` [Cmd 75], over 100 µM.
On to `Clc1cccc(Nc2cncc(-c3cncc(NCCCN4CCCCC4)c3)n2)c1` [Cmd 73], for which the IC50 was over 100 µM.
On the same count and under the same terms, in the case of `CN(C)CCCNc1cncc(-c2cncc(Nc3cccc(Cl)c3)n2)c1` [Cmd 35] it was over 100 µM; in that of `CN(C)CCNc1cncc(-c2cncc(Nc3cccc(Cl)c3)n2)c1` [Cmd 33, N′-[5-[6-[(3-chlorophenyl)amino]pyrazinyl]-3-pyridinyl]-N^2,N^2-dimethyl-1,2-ethanediamine], over 100 µM.

A further experiment addresses T2, Casein Kinase 1 (Rattus norvegicus, UniProt Q06486).
T2 construct: a truncation at amino acid 318 of the C-terminal portion of the rat CK1 delta isoform produced in E.coli; purchased New England Biolabs 6030; host or cells: E. coli
T2 sequence (Q06486 1-317 limits assumed): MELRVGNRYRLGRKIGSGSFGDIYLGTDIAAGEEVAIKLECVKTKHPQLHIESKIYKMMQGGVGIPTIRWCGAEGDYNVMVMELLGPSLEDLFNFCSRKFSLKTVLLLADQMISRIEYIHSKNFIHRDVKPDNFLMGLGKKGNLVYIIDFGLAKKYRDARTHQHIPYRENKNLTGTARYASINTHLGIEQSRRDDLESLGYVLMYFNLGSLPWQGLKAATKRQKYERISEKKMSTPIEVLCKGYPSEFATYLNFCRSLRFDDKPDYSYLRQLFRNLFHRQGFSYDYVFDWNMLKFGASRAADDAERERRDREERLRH
Description: Casein Kinase 1 selectivity assay. In kind it is biochemical. To be noted: Table 4 kinase selectivity; read-out: IC50, Assay 8 Casein Kinase 1. As to the method:
as §1, §2
For the compound `O=C(NCCCO)c1cncc(-c2cncc(Nc3cccc(Cl)c3)n2)c1` [Cmd 39], the IC50 was over 100 µM.
Still for that read-out and setting: next, `Clc1cccc(Nc2cncc(-c3cncc(NCCCc4cccnc4)c3)n2)c1` [Cmd 72]: over 100 µM.
On the same count and under the same terms, next, `Clc1cccc(Nc2cncc(-c3cncc(NCCCn4cncn4)c3)n2)c1` [Cmd 76]: 6.5 µM; `OCCCNc1cncc(-c2cncc(Nc3cccc(Cl)c3)n2)c1` [Cmd 4]: over 100 µM.
In the case of `Clc1cccc(Nc2cncc(-c3cncc(NCCCc4ccncc4)c3)n2)c1` [Cmd 71], the IC50 was over 100 µM.
Same read-out and setting: in the case of `Clc1cccc(Nc2cncc(-c3cncc(NCCCn4cccn4)c3)n2)c1` [Cmd 75] it was 5.6 µM; in that of `Clc1cccc(Nc2cncc(-c3cncc(NCCCN4CCCCC4)c3)n2)c1` [Cmd 73], 5.03 µM.
Still for that read-out and setting: next, `CN(C)CCCNc1cncc(-c2cncc(Nc3cccc(Cl)c3)n2)c1` [Cmd 35]: over 100 µM.
Still for that read-out and setting: next, `CN(C)CCNc1cncc(-c2cncc(Nc3cccc(Cl)c3)n2)c1` [Cmd 33, N′-[5-[6-[(3-chlorophenyl)amino]pyrazinyl]-3-pyridinyl]-N^2,N^2-dimethyl-1,2-ethanediamine]: over 100 µM.
